According to article PMC6874179, “Development of Macrocycle Kinase Inhibitors for ALK2 Using Fibrodysplasia Ossificans Progressiva‐Derived Endothelial Cells” (JBMR Plus, 2019):

What was measured:
Format in all cases: biochemical
PTK6 = biological target: T1, PTK6 (Homo sapiens, UniProt Q13882); test: Proqinase Kinase profiling; conditions: read-out: % inhibition at 100nM
T1 construct: purchased DiscoverX

BLK = biological target: T2, BLK (Homo sapiens, UniProt P51451); test: Proqinase Kinase profiling; conditions: read-out: % inhibition at 100nM
T2 construct: purchased DiscoverX

SRPK1 = biological target: T3, SRPK1 (Homo sapiens, UniProt Q96SB4); test: Proqinase Kinase profiling; conditions: read-out: % inhibition at 100nM
T3 construct: purchased DiscoverX

NLK = biological target: T4, NLK (Homo sapiens, UniProt Q9UBE8); test: Proqinase Kinase profiling; conditions: read-out: % inhibition at 100nM
T4 construct: purchased DiscoverX

MAP3K10 = biological target: T5, MAP3K10 (Homo sapiens, UniProt Q02779); test: Proqinase Kinase profiling; conditions: read-out: % inhibition at 100nM
T5 construct: purchased DiscoverX

CAMKK2 = biological target: T6, CAMKK2 (Homo sapiens, UniProt Q96RR4); test: Proqinase Kinase profiling; conditions: read-out: % inhibition at 100nM
T6 construct: purchased DiscoverX

CLK2 = biological target: T7, CLK2 (Homo sapiens, UniProt P49760); test: Proqinase Kinase profiling; conditions: read-out: % inhibition at 100nM
T7 construct: purchased DiscoverX

CDK1_cyclinB = biological target: T8, CDK1_cyclinB (Homo sapiens, UniProt P06493); test: Proqinase Kinase profiling; conditions: read-out: % inhibition at 100nM
T8 construct: purchased DiscoverX

DYRK2 = biological target: T9, DYRK2 (Homo sapiens, UniProt Q92630); test: Proqinase Kinase profiling; conditions: read-out: % inhibition at 100nM
T9 construct: purchased DiscoverX

RET_R749T = biological target: T10, RET_R749T (Homo sapiens, UniProt P07949, R749T); test: Proqinase Kinase profiling; conditions: read-out: % inhibition at 100nM
T10 construct: purchased DiscoverX

ZAK = biological target: T11, ZAK (Homo sapiens, UniProt Q9NYL2); test: Proqinase Kinase profiling; conditions: read-out: % inhibition at 100nM
T11 construct: purchased DiscoverX

HIPK2 = biological target: T12, HIPK2 (Homo sapiens, UniProt Q9H2X6); test: Proqinase Kinase profiling; conditions: read-out: % inhibition at 100nM
T12 construct: purchased DiscoverX

AKT1 = biological target: T13, AKT1 (Homo sapiens, UniProt P31749); test: Proqinase Kinase profiling; conditions: read-out: % inhibition at 100nM
T13 construct: purchased DiscoverX

TAOK2 = biological target: T14, TAOK2 (Homo sapiens, UniProt Q9UL54); test: Proqinase Kinase profiling; conditions: read-out: % inhibition at 100nM
T14 construct: purchased DiscoverX

CAMK2D = biological target: T15, CAMK2D (Homo sapiens, UniProt Q13557); test: Proqinase Kinase profiling; conditions: read-out: % inhibition at 100nM
T15 construct: purchased DiscoverX

BRAF_V600E = biological target: T16, BRAF_V600E (Homo sapiens, UniProt P15056, V600E); test: Proqinase Kinase profiling; conditions: read-out: % inhibition at 100nM
T16 construct: purchased DiscoverX

MAPK14 = biological target: T17, MAPK14 (Homo sapiens, UniProt Q16539); test: Proqinase Kinase profiling; conditions: read-out: % inhibition at 100nM
T17 construct: purchased DiscoverX

ALK2 wt = ALK2 wt (Homo sapiens, UniProt Q04771); test: RBC HotSpot Kinase assay
PAK3 = biological target: T18, PAK3 (Homo sapiens, UniProt O75914); test: Proqinase Kinase profiling; conditions: read-out: % inhibition at 100nM
T18 construct: purchased DiscoverX

TGFBR2 = biological target: T19, TGFBR2 (Homo sapiens, UniProt P37173); test: Proqinase Kinase profiling; conditions: read-out: % inhibition at 100nM
T19 construct: purchased DiscoverX

panel of 366–468 kinases = test: Kinase panel selectivity; conditions: compound at 100nM
From the text: Figure 4 ALK2 binding and kinase profile of OD36 and OD52.

CLK3 = biological target: T20, CLK3 (Homo sapiens, UniProt P49761); test: Proqinase Kinase profiling; conditions: read-out: % inhibition at 100nM
T20 construct: purchased DiscoverX

RPS6KA6 = biological target: T21, RPS6KA6 (Homo sapiens, UniProt Q9UK32); test: Proqinase Kinase profiling; conditions: read-out: % inhibition at 100nM
T21 construct: purchased DiscoverX

EPHA7 = biological target: T22, EPHA7 (Homo sapiens, UniProt Q15375); test: Proqinase Kinase profiling; conditions: read-out: % inhibition at 100nM
T22 construct: purchased DiscoverX

MAP3K1 = biological target: T23, MAP3K1 (Homo sapiens, UniProt Q13233); test: Proqinase Kinase profiling; conditions: read-out: % inhibition at 100nM
T23 construct: purchased DiscoverX

ADRBK1 = biological target: T24, ADRBK1 (Homo sapiens, UniProt P25098); test: Proqinase Kinase profiling; conditions: read-out: % inhibition at 100nM
T24 construct: purchased DiscoverX

EGFR_S752-I759del = biological target: T25, EGFR_S752-I759del (Homo sapiens, UniProt P00533, DEL752-759); test: Proqinase Kinase profiling; conditions: read-out: % inhibition at 100nM
T25 construct: purchased DiscoverX

RPS6KA2 = biological target: T26, RPS6KA2 (Homo sapiens, UniProt Q15349); test: Proqinase Kinase profiling; conditions: read-out: % inhibition at 100nM
T26 construct: purchased DiscoverX

STK4 = biological target: T27, STK4 (Homo sapiens, UniProt Q13043); test: Proqinase Kinase profiling; conditions: read-out: % inhibition at 100nM
T27 construct: purchased DiscoverX

MARK1 = biological target: T28, MARK1 (Homo sapiens, UniProt Q9P0L2); test: Proqinase Kinase profiling; conditions: read-out: % inhibition at 100nM
T28 construct: purchased DiscoverX

MINK1 = biological target: T29, MINK1 (Homo sapiens, UniProt Q8N4C8); test: Proqinase Kinase profiling; conditions: read-out: % inhibition at 100nM
T29 construct: purchased DiscoverX

DDR2 = biological target: T30, DDR2 (Homo sapiens, UniProt Q16832); test: Proqinase Kinase profiling; conditions: read-out: % inhibition at 100nM
T30 construct: purchased DiscoverX

MAPK12 = biological target: T31, MAPK12 (Homo sapiens, UniProt P53778); test: Proqinase Kinase profiling; conditions: read-out: % inhibition at 100nM
T31 construct: purchased DiscoverX

NEK7 = biological target: T32, NEK7 (Homo sapiens, UniProt Q8TDX7); test: Proqinase Kinase profiling; conditions: read-out: % inhibition at 100nM
T32 construct: purchased DiscoverX

FRK = biological target: T33, FRK (Homo sapiens, UniProt P42685); test: Proqinase Kinase profiling; conditions: read-out: % inhibition at 100nM
T33 construct: purchased DiscoverX

MAP3K9 = biological target: T34, MAP3K9 (Homo sapiens, UniProt P80192); test: Proqinase Kinase profiling; conditions: read-out: % inhibition at 100nM
T34 construct: purchased DiscoverX

PTK2B = biological target: T35, PTK2B (Homo sapiens, UniProt Q14289); test: Proqinase Kinase profiling; conditions: read-out: % inhibition at 100nM
T35 construct: purchased DiscoverX

SLK = biological target: T36, SLK (Homo sapiens, UniProt Q9H2G2); test: Proqinase Kinase profiling; conditions: read-out: % inhibition at 100nM
T36 construct: purchased DiscoverX

PDGFRA_T674I = biological target: T37, PDGFRA_T674I (Homo sapiens, UniProt P16234, T674I); test: Proqinase Kinase profiling; conditions: read-out: % inhibition at 100nM
T37 construct: purchased DiscoverX

STK24 = biological target: T38, STK24 (Homo sapiens, UniProt Q9Y6E0); test: Proqinase Kinase profiling; conditions: read-out: % inhibition at 100nM
T38 construct: purchased DiscoverX

ROCK1 = biological target: T39, ROCK1 (Homo sapiens, UniProt Q13464); test: Proqinase Kinase profiling; conditions: read-out: % inhibition at 100nM
T39 construct: purchased DiscoverX

CDK4_cyclinD3 = biological target: T40, CDK4_cyclinD3 (Homo sapiens, UniProt P11802); test: Proqinase Kinase profiling; conditions: read-out: % inhibition at 100nM
T40 construct: purchased DiscoverX

SRPK2 = biological target: T41, SRPK2 (Homo sapiens, UniProt P78362); test: Proqinase Kinase profiling; conditions: read-out: % inhibition at 100nM
T41 construct: purchased DiscoverX
T41 sequence (P78362 whole entry): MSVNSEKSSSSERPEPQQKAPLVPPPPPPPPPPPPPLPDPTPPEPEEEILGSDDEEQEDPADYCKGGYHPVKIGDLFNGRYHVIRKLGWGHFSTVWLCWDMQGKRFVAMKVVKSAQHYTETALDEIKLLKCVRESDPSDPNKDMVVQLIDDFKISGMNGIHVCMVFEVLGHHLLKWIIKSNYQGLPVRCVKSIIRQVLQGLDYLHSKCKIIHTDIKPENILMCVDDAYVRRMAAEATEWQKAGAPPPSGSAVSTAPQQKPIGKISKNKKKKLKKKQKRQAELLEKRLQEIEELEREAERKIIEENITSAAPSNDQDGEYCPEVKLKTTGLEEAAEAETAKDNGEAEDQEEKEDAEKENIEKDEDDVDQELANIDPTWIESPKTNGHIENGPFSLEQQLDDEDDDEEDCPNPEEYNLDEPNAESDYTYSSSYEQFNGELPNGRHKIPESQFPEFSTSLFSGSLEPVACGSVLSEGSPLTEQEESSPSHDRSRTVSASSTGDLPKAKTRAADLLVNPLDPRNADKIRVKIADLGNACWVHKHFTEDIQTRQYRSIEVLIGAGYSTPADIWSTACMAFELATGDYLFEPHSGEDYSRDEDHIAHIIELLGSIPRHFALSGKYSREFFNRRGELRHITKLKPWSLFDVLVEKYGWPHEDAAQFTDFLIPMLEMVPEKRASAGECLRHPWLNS

T10 sequence (P07949 29-1114 R749T): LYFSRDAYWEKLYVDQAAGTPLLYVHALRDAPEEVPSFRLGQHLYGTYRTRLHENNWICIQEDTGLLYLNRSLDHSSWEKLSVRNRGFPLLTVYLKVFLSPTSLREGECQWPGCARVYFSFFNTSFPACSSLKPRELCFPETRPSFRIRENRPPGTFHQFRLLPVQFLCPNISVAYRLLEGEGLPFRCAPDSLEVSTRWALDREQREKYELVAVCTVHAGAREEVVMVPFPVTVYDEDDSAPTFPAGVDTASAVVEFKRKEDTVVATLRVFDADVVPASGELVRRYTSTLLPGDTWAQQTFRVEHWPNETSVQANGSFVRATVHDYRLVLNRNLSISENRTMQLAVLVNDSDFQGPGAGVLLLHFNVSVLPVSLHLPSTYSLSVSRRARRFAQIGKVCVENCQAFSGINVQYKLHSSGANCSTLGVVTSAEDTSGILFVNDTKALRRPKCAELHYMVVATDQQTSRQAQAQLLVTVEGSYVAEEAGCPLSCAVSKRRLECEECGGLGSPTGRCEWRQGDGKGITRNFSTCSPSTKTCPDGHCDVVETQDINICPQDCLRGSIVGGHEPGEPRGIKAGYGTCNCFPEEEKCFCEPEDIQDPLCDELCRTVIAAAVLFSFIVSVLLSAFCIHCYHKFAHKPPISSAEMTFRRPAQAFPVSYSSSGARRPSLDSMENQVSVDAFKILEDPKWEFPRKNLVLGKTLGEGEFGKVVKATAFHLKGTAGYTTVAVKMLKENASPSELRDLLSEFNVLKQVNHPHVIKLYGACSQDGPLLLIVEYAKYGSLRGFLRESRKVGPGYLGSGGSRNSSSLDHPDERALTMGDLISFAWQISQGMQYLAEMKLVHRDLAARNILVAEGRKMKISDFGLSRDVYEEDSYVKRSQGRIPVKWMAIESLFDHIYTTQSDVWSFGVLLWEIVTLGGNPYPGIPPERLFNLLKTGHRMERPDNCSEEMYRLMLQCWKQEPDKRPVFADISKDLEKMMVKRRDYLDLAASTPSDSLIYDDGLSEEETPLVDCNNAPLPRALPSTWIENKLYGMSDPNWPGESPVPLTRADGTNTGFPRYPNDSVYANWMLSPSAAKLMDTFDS
T27 sequence (Q13043 whole entry): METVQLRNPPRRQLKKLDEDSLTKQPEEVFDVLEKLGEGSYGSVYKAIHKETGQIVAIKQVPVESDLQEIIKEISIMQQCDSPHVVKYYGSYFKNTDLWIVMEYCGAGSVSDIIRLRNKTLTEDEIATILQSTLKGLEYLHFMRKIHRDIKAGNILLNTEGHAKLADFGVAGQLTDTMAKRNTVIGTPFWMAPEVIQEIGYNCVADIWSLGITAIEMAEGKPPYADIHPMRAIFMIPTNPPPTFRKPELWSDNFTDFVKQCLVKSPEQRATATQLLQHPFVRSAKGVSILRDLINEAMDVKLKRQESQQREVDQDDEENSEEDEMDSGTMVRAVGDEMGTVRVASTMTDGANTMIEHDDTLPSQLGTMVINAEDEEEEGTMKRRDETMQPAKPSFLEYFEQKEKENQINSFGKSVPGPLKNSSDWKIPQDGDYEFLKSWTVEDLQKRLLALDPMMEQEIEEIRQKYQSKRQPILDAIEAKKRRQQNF
T29 sequence (Q8N4C8 whole entry): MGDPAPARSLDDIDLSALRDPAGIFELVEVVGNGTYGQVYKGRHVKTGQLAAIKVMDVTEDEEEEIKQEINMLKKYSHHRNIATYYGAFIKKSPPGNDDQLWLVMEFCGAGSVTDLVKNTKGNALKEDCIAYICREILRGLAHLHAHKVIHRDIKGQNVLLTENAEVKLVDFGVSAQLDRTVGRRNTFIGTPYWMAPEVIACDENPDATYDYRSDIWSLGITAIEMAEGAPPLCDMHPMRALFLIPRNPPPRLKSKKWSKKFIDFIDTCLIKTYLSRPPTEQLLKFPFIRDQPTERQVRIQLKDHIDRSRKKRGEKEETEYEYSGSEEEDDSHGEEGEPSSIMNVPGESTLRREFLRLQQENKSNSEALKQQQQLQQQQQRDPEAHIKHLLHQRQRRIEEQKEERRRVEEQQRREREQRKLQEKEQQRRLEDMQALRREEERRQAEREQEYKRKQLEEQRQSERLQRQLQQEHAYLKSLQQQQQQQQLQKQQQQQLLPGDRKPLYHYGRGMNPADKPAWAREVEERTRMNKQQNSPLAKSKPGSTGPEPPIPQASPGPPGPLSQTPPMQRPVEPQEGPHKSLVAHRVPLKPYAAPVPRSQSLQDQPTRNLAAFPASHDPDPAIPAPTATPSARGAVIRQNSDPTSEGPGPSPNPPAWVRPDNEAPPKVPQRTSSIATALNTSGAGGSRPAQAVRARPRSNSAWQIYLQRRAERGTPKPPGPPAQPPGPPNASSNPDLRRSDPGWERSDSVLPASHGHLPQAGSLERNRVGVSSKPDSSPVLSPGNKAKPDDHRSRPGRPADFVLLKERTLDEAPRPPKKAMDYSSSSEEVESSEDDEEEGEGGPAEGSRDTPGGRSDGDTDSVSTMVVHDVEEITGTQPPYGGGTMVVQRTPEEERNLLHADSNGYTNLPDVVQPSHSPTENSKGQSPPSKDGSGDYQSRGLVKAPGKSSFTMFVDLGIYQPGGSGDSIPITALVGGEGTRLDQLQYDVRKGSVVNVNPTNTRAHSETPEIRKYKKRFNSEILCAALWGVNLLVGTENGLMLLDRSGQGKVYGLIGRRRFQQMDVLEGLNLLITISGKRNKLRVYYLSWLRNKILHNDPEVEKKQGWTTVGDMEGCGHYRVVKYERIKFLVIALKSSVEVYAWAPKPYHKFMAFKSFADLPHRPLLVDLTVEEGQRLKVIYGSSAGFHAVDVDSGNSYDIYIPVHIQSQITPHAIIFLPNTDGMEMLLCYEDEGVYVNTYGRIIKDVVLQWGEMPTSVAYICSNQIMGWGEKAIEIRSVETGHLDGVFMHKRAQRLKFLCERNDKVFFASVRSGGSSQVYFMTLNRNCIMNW
T9 sequence (Q92630 whole entry): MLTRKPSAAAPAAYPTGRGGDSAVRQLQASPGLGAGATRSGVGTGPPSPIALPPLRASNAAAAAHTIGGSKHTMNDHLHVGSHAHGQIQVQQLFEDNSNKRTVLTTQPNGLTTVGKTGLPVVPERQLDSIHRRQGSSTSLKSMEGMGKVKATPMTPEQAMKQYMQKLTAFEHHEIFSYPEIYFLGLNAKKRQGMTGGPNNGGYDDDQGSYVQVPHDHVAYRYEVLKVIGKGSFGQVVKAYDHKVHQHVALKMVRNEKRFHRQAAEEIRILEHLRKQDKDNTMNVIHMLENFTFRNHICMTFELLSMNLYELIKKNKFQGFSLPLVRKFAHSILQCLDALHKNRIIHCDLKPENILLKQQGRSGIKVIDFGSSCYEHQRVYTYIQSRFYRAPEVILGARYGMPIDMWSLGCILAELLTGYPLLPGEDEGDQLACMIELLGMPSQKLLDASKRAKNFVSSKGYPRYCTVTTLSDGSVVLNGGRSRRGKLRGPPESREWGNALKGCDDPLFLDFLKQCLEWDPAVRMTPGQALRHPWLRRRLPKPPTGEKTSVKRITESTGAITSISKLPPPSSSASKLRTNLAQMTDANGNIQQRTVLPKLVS
T3 sequence (Q96SB4 whole entry): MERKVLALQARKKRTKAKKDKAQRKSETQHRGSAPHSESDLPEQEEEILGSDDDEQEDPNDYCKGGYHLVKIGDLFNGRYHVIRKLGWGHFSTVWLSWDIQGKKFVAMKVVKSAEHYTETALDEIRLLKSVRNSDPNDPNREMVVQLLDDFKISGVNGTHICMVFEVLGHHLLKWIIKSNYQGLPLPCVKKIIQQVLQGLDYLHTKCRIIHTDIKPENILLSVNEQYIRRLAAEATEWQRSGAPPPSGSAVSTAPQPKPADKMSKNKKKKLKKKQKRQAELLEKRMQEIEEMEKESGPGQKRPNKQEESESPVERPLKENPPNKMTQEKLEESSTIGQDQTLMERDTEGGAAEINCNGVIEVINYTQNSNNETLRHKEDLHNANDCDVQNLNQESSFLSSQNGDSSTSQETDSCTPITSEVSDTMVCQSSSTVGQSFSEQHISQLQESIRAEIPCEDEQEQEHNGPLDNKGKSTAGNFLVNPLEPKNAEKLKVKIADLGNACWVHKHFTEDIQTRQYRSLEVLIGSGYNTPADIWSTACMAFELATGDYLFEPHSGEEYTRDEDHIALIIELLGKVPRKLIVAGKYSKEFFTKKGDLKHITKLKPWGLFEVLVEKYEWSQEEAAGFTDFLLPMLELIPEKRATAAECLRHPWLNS

`Clc1cc2cc(c1)-c1cnn3ccc(nc13)NCCOCCO2` [OD36] gave an inhibition at 0.1 µM (PTK6) of 46%, an inhibition at 0.1 µM (BLK) of 35% and an inhibition at 0.1 µM (SRPK1) of 10%. It also gave an inhibition at 0.1 µM (NLK) of 33%, an inhibition at 0.1 µM (MAP3K10) of 13% and an inhibition at 0.1 µM (CAMKK2) of 3%. The inhibition at 0.1 µM (CLK2) was 10%, the inhibition at 0.1 µM (CDK1_cyclinB) was 9% and the inhibition at 0.1 µM (DYRK2) was 2%. The inhibition at 0.1 µM (RET_R749T) was 30%, the inhibition at 0.1 µM (ZAK) was 70% and the inhibition at 0.1 µM (HIPK2) was 16%. The inhibition at 0.1 µM (AKT1) was 4%, the inhibition at 0.1 µM (TAOK2) was 15% and the inhibition at 0.1 µM (CAMK2D) was 6%. The inhibition at 0.1 µM (BRAF_V600E) was 10%, the inhibition at 0.1 µM (MAPK14) was -4% and the IC50 (ALK2 wt) was 47 nM. For the same compound, the inhibition at 0.1 µM (PAK3) was 1%, the inhibition at 0.1 µM (TGFBR2) was 68% and the “Selectivity: % of tested kinases inhibited over 50%” value (panel of 366–468 kinases) was 4.3%. For the same compound, the inhibition at 0.1 µM (CLK3) was 14%, the inhibition at 0.1 µM (RPS6KA6) was 8% and the inhibition at 0.1 µM (EPHA7) was 23%. For the same compound, the inhibition at 0.1 µM (MAP3K1) was 8%, the inhibition at 0.1 µM (ADRBK1) was 4% and the inhibition at 0.1 µM (EGFR_S752-I759del) was 17%. It also gave an inhibition at 0.1 µM (RPS6KA2) of 7%, an inhibition at 0.1 µM (STK4) of 11% and an inhibition at 0.1 µM (MARK1) of 11%. The inhibition at 0.1 µM (MINK1) was 5%, the inhibition at 0.1 µM (DDR2) was 59% and the inhibition at 0.1 µM (MAPK12) was 24%. For the same compound, the inhibition at 0.1 µM (NEK7) was 5%, the inhibition at 0.1 µM (FRK) was 35% and the inhibition at 0.1 µM (MAP3K9) was 13%. For the same compound, the inhibition at 0.1 µM (PTK2B) was -2%, the inhibition at 0.1 µM (SLK) was 13% and the inhibition at 0.1 µM (PDGFRA_T674I) was -22%. For the same compound, the inhibition at 0.1 µM (STK24) was 8%, the inhibition at 0.1 µM (ROCK1) was 1% and the inhibition at 0.1 µM (CDK4_cyclinD3) was -30%. For the same compound, the inhibition at 0.1 µM (SRPK2) was -2%.
For `Cc1cc2cc(c1)-c1cnn3ccc(nc13)NCCNC(=O)CCN(C)C2` [OD52], the inhibition at 0.1 µM (PTK6) was 0%, the inhibition at 0.1 µM (BLK) was -6% and the inhibition at 0.1 µM (SRPK1) was -9%. It also gave an inhibition at 0.1 µM (NLK) of 1%, an inhibition at 0.1 µM (MAP3K10) of -3% and an inhibition at 0.1 µM (CAMKK2) of 2%. For the same compound, the inhibition at 0.1 µM (CLK2) was 1%, the inhibition at 0.1 µM (CDK1_cyclinB) was 6% and the inhibition at 0.1 µM (DYRK2) was 9%. The inhibition at 0.1 µM (RET_R749T) was 36%, the inhibition at 0.1 µM (ZAK) was 6% and the inhibition at 0.1 µM (HIPK2) was -2%. It also gave an inhibition at 0.1 µM (AKT1) of -4%, an inhibition at 0.1 µM (TAOK2) of 3% and an inhibition at 0.1 µM (CAMK2D) of -9%. It also gave an inhibition at 0.1 µM (BRAF_V600E) of -1%, an inhibition at 0.1 µM (MAPK14) of 1% and an IC50 (ALK2 wt) of 72 nM. For the same compound, the inhibition at 0.1 µM (PAK3) was -15%, the inhibition at 0.1 µM (TGFBR2) was 0% and the “Selectivity: % of tested kinases inhibited over 50%” value (panel of 366–468 kinases) was 0.9%. It also gave an inhibition at 0.1 µM (CLK3) of 3%, an inhibition at 0.1 µM (RPS6KA6) of 0% and an inhibition at 0.1 µM (EPHA7) of -18%. The inhibition at 0.1 µM (MAP3K1) was -14%, the inhibition at 0.1 µM (ADRBK1) was 10% and the inhibition at 0.1 µM (EGFR_S752-I759del) was -15%. The inhibition at 0.1 µM (RPS6KA2) was -2%, the inhibition at 0.1 µM (STK4) was 8% and the inhibition at 0.1 µM (MARK1) was -9%. For the same compound, the inhibition at 0.1 µM (MINK1) was -11%, the inhibition at 0.1 µM (DDR2) was 6% and the inhibition at 0.1 µM (MAPK12) was -10%. The inhibition at 0.1 µM (NEK7) was 5%, the inhibition at 0.1 µM (FRK) was -5% and the inhibition at 0.1 µM (MAP3K9) was 4%. For the same compound, the inhibition at 0.1 µM (PTK2B) was 6%, the inhibition at 0.1 µM (SLK) was 10% and the inhibition at 0.1 µM (PDGFRA_T674I) was 4%. For the same compound, the inhibition at 0.1 µM (STK24) was 12%, the inhibition at 0.1 µM (ROCK1) was 1% and the inhibition at 0.1 µM (CDK4_cyclinD3) was -5%. The inhibition at 0.1 µM (SRPK2) was -16%.
